Laboratory results reported in patent publication US11946934B2, “Biomarker for predicting the sensitivity to a protein kinase inhibitor and a use thereof” (Wellmarker Bio Co., LTD., priority 2014, dated 2024).
Entries after “also recorded” stand apart in the source; their conditions may differ.

Experiments:
[1] = tested on: Colo320HSR introduced with RON-active Δ155 gene; test: Induction of apoptosis; assay type: cell-based
Description: (§1) Additionally, Colo320HSR, the colon cancer cell line in which RON is not expressed, was introduced with the RON-active Δ155 gene and the RON-active Δ160 gene, which are constantly active in the Colo320HSR, and treated with CJ12524 at various concentrations in order to confirm the presence of apoptosis.

[2] = tested on: Colo320HSR introduced with RON-active Δ160 gene; test: Induction of apoptosis; assay type: cell-based
Description: as §1

HT29 = test: Induction of apoptosis; assay type: cell-based
Protocol: (§2) HT29 and HCT8, the colon cancer cell lines which have a high p-RON expression level because RON is always phosphorylated, were treated with CJ12524 in order to confirm the presence of apoptosis.

HCT8 [3] = test: Induction of apoptosis; assay type: cell-based
Protocol: as §2

RON-active Δ155 = target: T1, RON-active Δ155 (Homo sapiens, UniProt Q04912, DEL574-682/INS813Q); test: Inhibition of RON phosphorylation in Colo320HSR introduced with RON variant; assay type: cell-based; conditions: Colo320HSR with RON-active Δ155 gene
T1 construct: expressed in transfected cells; host or cells: Colo320HSR
Protocol: (§3) The cells in the sample were lysed using RIPA buffer and the protein was extracted therefrom using a high speed centrifuge. The protein in an amount of 30 μg per cell was separated by electrophoresis, transferred onto a PDVF membrane by western blot, and allowed to react with RON antibodies, which were diluted in 5% skim milk at a 1:2000 ratio, at 4° C. for 12 hours. Then, the resultant was washed 3 times with TBS-T buffer for 15 minutes per wash, reacted with the secondary antibodies, which were diluted in 5% skim milk at a 1:2000 ratio, at room temperature for 2 hours, washed 3 times with TBS-T buffer for 15 minutes per wash. The illumination of the PDVF membrane was induced using ECL buffer and the expression of the RON protein was developed using an X-ray film. Additionally, 1 μg of the RON antibody was added to the protein in an amount of 500 μg per cell by immunoprecipitation method, reacted at 4° C. for 12 hours, and anti-antibody beads were added thereto to immunoprecipitate the RON antibody. The resultant was separated by electrophoresis, transferred onto a PDVF membrane by western blot, and allowed to react with p-Tyr antibodies, which were diluted in 5% skim milk at a 1:1000 ratio, at 4° C. for 12 hours. […]

RON-active Δ160 = test: as above; assay type: cell-based; conditions: Colo320HSR with RON-active Δ160 gene
Protocol: as §3

[4] = tested on: HCT8 cell line xenograft in nude mice; test: RON-active cancer cell xenograft model, tumor size, tumor weight, body weight; assay type: in vivo, mouse
Protocol: For analyzing the drug sensitivity to CJ12524 in an in-vivo state, the present inventors transplanted a cancer cell line which was determined to be positive against the RON activity into nude mice, and thereby a cancer cell-derived xenograft model ([…]) was prepared.

RON (p-RON) in HCT8 = target: T2, RON (p-RON) in HCT8 (Homo sapiens, UniProt Q04912); test: Inhibition of RON phosphorylation in HCT8 colon cancer cells; assay type: cell-based; conditions: HCT8, various concentrations
T2 construct: endogenous in cells; host or cells: HCT8 (cultured, and as xenograft tumour in nude mice)
Protocol: as §3

RON (p-RON) in HT29 = test: Inhibition of RON phosphorylation in HT29 colon cancer cells; assay type: cell-based; conditions: HT29, various concentrations
Protocol: as §3

RON phosphorylation = target: T3, RON phosphorylation (Homo sapiens, UniProt Q04912); test: RON phosphorylation in tumor tissue of the HCT8 xenograft model (immunochemical staining, western blot); assay type: in vivo; conditions: after completion of administration, FIG. 8c, 8d
T3 construct: endogenous in cells; host or cells: HCT8 (cultured, and as xenograft tumour in nude mice)
Protocol: as §3

HCT8 [5] = test: Cell invasion (cell metastasis); assay type: cell-based; conditions: HCT8, FIG. 7e
Protocol: HCT8, a colon cancer cell line where RON is always phosphorylated, was treated with CJ12524 in order to confirm the degree of cell invasion.

[6] = tested on: Colo320HSR introduced with RON Δ160; test: Colo320HSR xenograft animal model, inhibition of tumor growth; assay type: in vivo
Protocol: (§4) Specifically, an animal model using the Colo320HSR cell line without RON activity (control group) and an animal model using the cell line introduced with the RON-active Δ155 gene and the RON-active Δ160 gene, which are constantly expressed, or a RON M1254T mutant were prepared, and their effects of inhibiting tumor formation by CJ12537 were compared.

[7] = tested on: Colo320HSR introduced with RON Δ155; test: as above; assay type: in vivo; conditions: RON-active variant Δ155
Protocol: as §4

[8] = tested on: Colo320HSR control (pMET & pRON negative, without RON activity); test: as above; assay type: in vivo; conditions: various concentrations
Protocol: as §4

[9] = tested on: MKN1 cells transplanted into Balb/c nude mice; test: Stomach cancer cell xenograft mouse model without RON activity, tumor volume; assay type: in vivo; conditions: 30 mpk and 100 mpk oral daily, FIG. 9
Description: It was confirmed whether tumor formation can be inhibited by CJ12537 in a stomach cancer xenograft mouse model without RON activity.
Specifically, 5-to 6-week-old Balb/c nude mice were subcutaneously injected with 1×10^7 cells (MKN1 parent, MKN1 RONΔ160 stable cell) and Matrigel at a 1:1 (v/v) ratio. When the tumor size grew to a size of 90 mm^3 to 100 mm^3, the mice were divided into groups and administered with drugs. Vehicle, CJ12537 (30 mpk), CJ12537 (100 mpk), and positive control (Amgen; 30 mpk) were orally administered daily. The tumor size was measured once in three days. Upon completion of the administration, the mice were sacrificed and tissues were ablated and the weight of tumor was measured. In particular, proteins were extracted from the tissues and the changes in expression pattern of p-RON and related proteins were confirmed by western blot analysis. Additionally, for confirming the change in tumor size, the tumor size was measured once every three days and compared and analyzed even after the completion of drug administration.

[10] = various concentrations, 14 days, FIG. 8a

T2 sequence (Q04912 25-1400): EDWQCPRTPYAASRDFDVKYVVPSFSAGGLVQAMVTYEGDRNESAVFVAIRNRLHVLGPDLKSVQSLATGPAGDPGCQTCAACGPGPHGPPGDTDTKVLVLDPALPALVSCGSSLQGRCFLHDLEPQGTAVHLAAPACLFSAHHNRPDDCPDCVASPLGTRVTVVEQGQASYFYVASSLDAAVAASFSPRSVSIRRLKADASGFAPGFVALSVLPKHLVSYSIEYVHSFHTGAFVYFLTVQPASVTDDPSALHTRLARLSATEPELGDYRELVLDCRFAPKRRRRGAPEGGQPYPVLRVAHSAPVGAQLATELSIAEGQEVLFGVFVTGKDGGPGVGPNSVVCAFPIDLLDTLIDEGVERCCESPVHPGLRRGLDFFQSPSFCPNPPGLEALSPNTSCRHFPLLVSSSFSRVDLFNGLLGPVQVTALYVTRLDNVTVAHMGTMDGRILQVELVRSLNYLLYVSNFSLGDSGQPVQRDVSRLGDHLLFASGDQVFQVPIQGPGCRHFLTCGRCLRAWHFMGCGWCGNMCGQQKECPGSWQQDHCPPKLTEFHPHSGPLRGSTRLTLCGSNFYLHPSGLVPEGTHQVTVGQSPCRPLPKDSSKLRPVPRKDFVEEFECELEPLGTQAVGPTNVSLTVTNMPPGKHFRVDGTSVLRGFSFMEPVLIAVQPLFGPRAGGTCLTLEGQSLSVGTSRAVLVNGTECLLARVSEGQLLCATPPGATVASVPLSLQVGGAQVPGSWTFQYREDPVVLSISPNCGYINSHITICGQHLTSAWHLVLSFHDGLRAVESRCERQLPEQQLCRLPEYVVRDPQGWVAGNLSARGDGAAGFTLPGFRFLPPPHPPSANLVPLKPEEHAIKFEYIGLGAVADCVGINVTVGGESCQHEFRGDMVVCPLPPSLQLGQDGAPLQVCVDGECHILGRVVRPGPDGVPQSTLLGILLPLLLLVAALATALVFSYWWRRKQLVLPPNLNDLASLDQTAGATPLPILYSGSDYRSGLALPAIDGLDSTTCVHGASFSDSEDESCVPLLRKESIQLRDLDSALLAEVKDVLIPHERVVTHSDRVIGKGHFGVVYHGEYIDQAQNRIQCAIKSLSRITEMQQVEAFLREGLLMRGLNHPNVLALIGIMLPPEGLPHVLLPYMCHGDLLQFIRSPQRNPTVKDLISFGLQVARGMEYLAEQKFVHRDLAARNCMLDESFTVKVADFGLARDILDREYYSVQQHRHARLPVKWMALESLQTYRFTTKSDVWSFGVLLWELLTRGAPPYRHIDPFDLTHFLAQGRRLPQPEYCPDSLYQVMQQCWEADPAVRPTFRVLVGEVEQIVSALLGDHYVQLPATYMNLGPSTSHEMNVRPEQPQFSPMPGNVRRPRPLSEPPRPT
T1 sequence (Q04912 with tags, fused parts or gaps isoform Q04912-2 DEL574-682/INS813Q): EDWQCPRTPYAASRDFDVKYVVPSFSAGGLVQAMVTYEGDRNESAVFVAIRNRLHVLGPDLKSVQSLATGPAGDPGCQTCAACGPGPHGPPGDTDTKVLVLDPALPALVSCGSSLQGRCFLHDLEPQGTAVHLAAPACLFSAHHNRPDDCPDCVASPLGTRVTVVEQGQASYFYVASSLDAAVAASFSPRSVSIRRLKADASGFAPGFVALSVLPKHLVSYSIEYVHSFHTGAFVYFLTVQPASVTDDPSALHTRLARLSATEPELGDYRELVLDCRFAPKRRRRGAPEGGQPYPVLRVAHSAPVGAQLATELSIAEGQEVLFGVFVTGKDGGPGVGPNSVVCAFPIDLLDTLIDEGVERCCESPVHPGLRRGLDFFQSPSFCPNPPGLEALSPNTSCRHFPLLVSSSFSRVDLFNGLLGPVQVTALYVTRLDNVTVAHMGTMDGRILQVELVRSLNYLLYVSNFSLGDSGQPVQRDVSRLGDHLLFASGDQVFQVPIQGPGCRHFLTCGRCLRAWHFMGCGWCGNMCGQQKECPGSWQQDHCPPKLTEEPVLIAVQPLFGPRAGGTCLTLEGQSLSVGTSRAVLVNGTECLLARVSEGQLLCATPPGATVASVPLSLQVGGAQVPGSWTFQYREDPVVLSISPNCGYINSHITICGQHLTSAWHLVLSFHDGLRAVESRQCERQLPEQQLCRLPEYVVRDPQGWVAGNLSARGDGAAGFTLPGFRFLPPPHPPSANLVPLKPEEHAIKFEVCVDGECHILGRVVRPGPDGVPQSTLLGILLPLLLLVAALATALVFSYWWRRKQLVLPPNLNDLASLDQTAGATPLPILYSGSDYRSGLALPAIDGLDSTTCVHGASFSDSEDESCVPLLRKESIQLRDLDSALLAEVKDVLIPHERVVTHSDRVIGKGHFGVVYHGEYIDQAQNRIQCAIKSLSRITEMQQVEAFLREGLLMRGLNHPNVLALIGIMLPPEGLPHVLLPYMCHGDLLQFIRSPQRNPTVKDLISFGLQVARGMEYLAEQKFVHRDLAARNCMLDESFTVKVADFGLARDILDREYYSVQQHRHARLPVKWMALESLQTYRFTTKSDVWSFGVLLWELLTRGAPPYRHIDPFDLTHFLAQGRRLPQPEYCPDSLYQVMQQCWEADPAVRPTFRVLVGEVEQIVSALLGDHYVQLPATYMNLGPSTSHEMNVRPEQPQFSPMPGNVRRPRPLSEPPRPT
T3 sequence (Q04912 25-1400): as the sequence (Q04912 25-1400) above

With `CCOc1ccn(-c2ccc(F)cc2)c(=O)c1C(=O)Nc1ccc(Oc2ccnc3cc(-c4ccccn4)sc23)c(F)c1` [CJ12524, 4-ethoxy-N-(3-fluoro-4-(2-(pyridin-2-yl)thieno[3,2-b]pyridin-7-yloxy)phenyl)-1-(4-fluorophenyl)-2-oxo-1,2-dihydropyridin-3-carboxamide] the “expression of cleaved caspase 3 (apoptosis marker)” value ([1]; Colo320HSR RON-active Δ155, according to the concentration) was “increased”, the apoptosis ([1]; Colo320HSR RON-active Δ155, various concentrations, FIG. 7d) was “increased” and the “expression of cleaved caspase 3 (apoptosis marker)” value ([2]; Colo320HSR RON-active Δ160, according to the concentration) was “increased”. For the same compound, the apoptosis ([2]; Colo320HSR RON-active Δ160, various concentrations, FIG. 7d) was “increased”, the “expression of cleaved caspase 3” value (HT29; HT29) was “increased” and the apoptosis (HT29; HT29, various concentrations, according to the concentration, FIG. 7c) was “increased”. The “expression of cleaved caspase 3” value (HCT8 [3]; HCT8) was “increased”, the apoptosis (HCT8 [3]; HCT8, various concentrations, according to the concentration, FIG. 7c) was “increased” and the RON phosphorylation (RON-active Δ155) was “reduced”. The RON phosphorylation (RON-active Δ160) was “reduced”, the “tumor weight upon completion of drug administration” value ([4]; all treated groups, FIG. 8b) was “reduced” and the “body weight of the mice” value [4, 10] was “almost no decrease”. For the same compound, the “tumor growth (tumor size)” value [4, 10] was “inhibited”, the RON phosphorylation (RON (p-RON) in HCT8) was “inhibited; also recorded: reduced” and the RON phosphorylation (RON (p-RON) in HT29) was “inhibited; also recorded: reduced”. For the same compound, the “RON phosphorylation in tumor tissue” value (RON phosphorylation) was “decreased” and the “inhibition of the degree of cell metastasis (cell invasion)” value (HCT8 [5]) was “about 60%”.

For `CCOc1ccn(-c2ccc(F)cc2)c(=O)c1C(=O)Nc1ccc(Oc2ccnc3cc(-c4cn(C)cn4)sc23)c(F)c1` [CJ12537, 4-ethoxy-N-(3-fluoro-4-(2-(1-methyl-1H-imidazol-4-yl)thieno[3,2-b]pyridin-7-yloxy)phenyl)-1-(4-fluorophenyl)-2-oxo-1,2-dihydropyridin-3-carboxamide], the “Tumor growth relative to vehicle (fold)” value ([6]; Colo320HSR RON Δ160, 30 MPK, vehicle = 1) was 0.71 fold, the tumor formation ([6]; RON-active variant Δ160) was “inhibited tumor formation” and the tumor formation [7] was “inhibited tumor formation”. The tumor formation [8] was “did not inhibit tumor formation at all” and the tumor volume [9] was “no noticeable change”.
